Consider 13 molecules from patent US20240150369A1, “CYCLIN-DEPENDENT KINASE INHIBITING COMPOUNDS FOR THE TREATMENT OF MEDICAL DISORDERS” (G1 Therapeutics, Inc., priority 2020, published 2024).

Some results are limits rather than exact numbers.

In general, IC50 refers to the concentration that gives 50% inhibition. A high value points to lower potency.

Assay type in all cases: biochemical
The target in one assay is CDK2/Cyclin A (Homo sapiens (Human), UniProt P24941). As to the kind of experiment: CDK2/Cyclin A kinase assay (Nanosyn, Caliper microfluidic). Particulars: 12-point dose-response, singlicate, at Km for ATP; ATP 50 μM; 3 hr. The method, then: (§1) Selected compounds disclosed herein were tested in kinase assays by Nanosyn (Santa Clara, CA) to determine their inhibitory effect on these CDKs. The assays were performed using microfluidic kinase detection technology (Caliper Assay Platform). The compounds were tested in 12-point dose-response format in singlicate at Km for ATP. Specifics of each assay are as described below:
CDK2/Cyclin A: Enzyme concentration: 0.1 nM; ATP concentration: 50 μM; Incubation time: 3 hr.

The target in the next assay is CDK2/Cyclin E (Homo sapiens (Human), UniProt P24941). As to the kind of experiment: CDK2/Cyclin E kinase assay (Nanosyn, Caliper microfluidic). The conditions noted are these: 12-point dose-response, singlicate, at Km for ATP; ATP 100 μM; 3 hr. The method, then: as §1
CDK2/Cyclin E: Enzyme concentration: 0.15 nM; ATP concentration: 100 μM; Incubation time: 3 hr.

The next assay addresses CDK4/Cyclin D1 (Homo sapiens (Human), UniProt P11802). As to the kind of experiment: CDK4/Cyclin D1 kinase assay (Nanosyn, Caliper microfluidic). Particulars: 12-point dose-response, singlicate, at Km for ATP; ATP 200 μM; 3 hr. The method, then:
as §1
CDK4/Cyclin D1: Enzyme concentration: 1 nM; ATP concentration: 200 μM; Incubation time: 3 hr.

The target in another assay is CDK6/Cyclin D3 (Homo sapiens (Human), UniProt Q00534). As to the kind of experiment: CDK6/Cyclin D3 kinase assay (Nanosyn, Caliper microfluidic). The conditions noted are these: 12-point dose-response, singlicate, at Km for ATP; ATP 300 μM; 3 hr. The method, then: as §1
CDK6/Cyclin D3: Enzyme concentration: 2 nM; ATP concentration: 300 μM; Incubation time: 3 hr.

A further assay concerns the target CDK9/Cyclin T1 (Homo sapiens (Human), UniProt P50750). As to the kind of experiment: CDK9/Cyclin T1 kinase assay (Nanosyn, Caliper microfluidic). Particulars: 12-point dose-response, singlicate, at Km for ATP; ATP 10 μM; 17 hr. The method, then: as §1
CDK9/Cyclin T1: Enzyme concentration: 5 nM; ATP concentration: 10 μM; Incubation time: 17 hr.

The target in a further assay is CDK1/Cyclin B1 (Homo sapiens (Human), UniProt P06493). As to the kind of experiment: CDK1/Cyclin B1 kinase assay (Nanosyn, Caliper microfluidic). The conditions noted are these: 12-point dose-response, singlicate, at Km for ATP; ATP 40 μM; 3 hr. The method, then: as §1
CDK1/Cyclin B1: Enzyme concentration: 0.08 nM; ATP concentration: 40 μM; Incubation time: 3 hr.

A further assay deals with CDK3-CYCLIN-E (Homo sapiens (Human), UniProt Q00526). As to the kind of experiment: CDK3-Cyclin-E kinase assay (Nanosyn, Caliper microfluidic). The conditions noted are these: 12-point dose-response, singlicate, at Km for ATP. The method, then:
(§2) Selected compounds disclosed herein were tested in kinase assays by Nanosyn (Santa Clara, CA) to determine their inhibitory effect on these CDKs. The assays were performed using microfluidic kinase detection technology (Caliper Assay Platform). The compounds were tested in 12-point dose-response format in singlicate at Km for ATP.

Another assay concerns the target CDK5-p25 (Homo sapiens (Human), UniProt Q00535). As to the kind of experiment: CDK5-p25 kinase assay (Nanosyn, Caliper microfluidic). Particulars: 12-point dose-response, singlicate, at Km for ATP. The method, then: as §2
The next assay concerns the target CDK7 (Homo sapiens (Human), UniProt P50613). As to the kind of experiment: CDK7 kinase assay (Nanosyn, Caliper microfluidic). Particulars: 12-point dose-response, singlicate, at Km for ATP. The protocol: as §2

Sequence of CDK7 (P50613 whole entry): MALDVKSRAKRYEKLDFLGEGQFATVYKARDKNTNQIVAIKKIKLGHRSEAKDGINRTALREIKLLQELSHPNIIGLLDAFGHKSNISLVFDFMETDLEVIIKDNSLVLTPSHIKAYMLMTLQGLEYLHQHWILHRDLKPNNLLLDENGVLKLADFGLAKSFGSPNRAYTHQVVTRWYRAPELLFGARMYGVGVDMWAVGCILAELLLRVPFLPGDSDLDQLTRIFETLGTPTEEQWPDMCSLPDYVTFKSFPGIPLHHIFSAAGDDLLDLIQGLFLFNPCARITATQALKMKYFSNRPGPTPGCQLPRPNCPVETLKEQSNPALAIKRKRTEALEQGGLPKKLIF
Sequence of CDK7 (P51946 whole entry partner): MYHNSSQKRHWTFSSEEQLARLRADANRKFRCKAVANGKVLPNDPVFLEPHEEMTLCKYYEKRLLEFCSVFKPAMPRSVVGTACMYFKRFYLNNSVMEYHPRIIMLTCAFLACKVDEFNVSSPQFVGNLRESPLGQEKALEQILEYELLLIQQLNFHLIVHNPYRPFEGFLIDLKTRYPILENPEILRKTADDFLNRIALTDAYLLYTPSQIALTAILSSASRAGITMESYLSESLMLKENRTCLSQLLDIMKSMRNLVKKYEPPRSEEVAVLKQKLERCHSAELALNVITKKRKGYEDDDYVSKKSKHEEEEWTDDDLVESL
Sequence of CDK7 (P51948 whole entry partner): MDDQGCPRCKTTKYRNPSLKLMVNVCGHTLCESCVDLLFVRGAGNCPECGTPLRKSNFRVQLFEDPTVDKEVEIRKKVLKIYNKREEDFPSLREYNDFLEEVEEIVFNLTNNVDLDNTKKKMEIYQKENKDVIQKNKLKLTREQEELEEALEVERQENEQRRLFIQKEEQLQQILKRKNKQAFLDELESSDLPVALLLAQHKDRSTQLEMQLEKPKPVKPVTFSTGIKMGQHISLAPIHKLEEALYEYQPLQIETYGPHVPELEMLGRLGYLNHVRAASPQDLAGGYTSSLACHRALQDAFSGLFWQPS
Sequence of CDK6/Cyclin D3 (Q00534 whole entry): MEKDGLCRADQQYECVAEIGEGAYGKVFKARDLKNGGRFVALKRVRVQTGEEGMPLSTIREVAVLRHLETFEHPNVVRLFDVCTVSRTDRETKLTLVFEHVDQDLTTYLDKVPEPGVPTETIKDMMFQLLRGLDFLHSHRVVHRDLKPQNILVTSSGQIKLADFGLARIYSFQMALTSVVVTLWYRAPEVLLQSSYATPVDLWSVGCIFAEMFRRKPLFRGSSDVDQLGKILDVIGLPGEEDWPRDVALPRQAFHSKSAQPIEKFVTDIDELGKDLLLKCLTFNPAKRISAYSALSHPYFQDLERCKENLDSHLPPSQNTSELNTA
Sequence of CDK6/Cyclin D3 (P30281 whole entry partner): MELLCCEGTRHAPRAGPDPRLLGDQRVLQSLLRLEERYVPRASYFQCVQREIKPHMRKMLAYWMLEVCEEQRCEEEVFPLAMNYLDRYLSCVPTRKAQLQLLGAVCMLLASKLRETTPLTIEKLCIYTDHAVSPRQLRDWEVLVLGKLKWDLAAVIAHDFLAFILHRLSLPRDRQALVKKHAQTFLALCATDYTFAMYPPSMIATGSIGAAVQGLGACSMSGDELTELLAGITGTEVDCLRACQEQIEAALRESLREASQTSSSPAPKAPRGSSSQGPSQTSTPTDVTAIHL
Sequence of CDK1/Cyclin B1 (P06493 whole entry): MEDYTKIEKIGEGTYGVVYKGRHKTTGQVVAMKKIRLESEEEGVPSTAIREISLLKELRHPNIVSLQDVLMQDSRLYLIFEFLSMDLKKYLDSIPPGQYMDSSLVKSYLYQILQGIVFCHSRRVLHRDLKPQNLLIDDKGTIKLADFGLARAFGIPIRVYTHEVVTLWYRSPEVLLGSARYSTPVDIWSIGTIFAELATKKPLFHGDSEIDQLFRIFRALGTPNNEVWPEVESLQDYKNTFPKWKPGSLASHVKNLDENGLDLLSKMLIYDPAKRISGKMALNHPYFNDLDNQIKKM
Sequence of CDK1/Cyclin B1 (P14635 whole entry partner): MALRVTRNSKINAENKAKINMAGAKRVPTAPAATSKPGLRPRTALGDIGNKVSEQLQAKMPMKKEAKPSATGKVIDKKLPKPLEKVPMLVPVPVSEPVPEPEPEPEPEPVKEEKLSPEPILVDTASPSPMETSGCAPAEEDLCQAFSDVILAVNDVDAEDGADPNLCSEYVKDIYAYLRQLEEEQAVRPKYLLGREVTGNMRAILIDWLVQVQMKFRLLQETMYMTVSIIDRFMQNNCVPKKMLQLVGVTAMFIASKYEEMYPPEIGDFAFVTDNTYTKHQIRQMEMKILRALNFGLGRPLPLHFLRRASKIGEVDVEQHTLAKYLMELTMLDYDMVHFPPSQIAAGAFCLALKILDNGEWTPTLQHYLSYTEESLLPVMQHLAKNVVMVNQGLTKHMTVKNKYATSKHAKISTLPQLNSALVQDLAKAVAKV
Sequence of CDK4/Cyclin D1 (P11802 whole entry): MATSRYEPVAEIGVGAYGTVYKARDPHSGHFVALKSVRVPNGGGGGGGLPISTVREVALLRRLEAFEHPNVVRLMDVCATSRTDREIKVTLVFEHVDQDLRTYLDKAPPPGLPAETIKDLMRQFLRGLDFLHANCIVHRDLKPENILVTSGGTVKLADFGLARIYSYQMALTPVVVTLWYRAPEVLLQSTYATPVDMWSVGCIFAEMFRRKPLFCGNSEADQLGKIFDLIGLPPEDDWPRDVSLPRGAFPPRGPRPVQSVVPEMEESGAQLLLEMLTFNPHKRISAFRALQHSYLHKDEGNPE
Sequence of CDK4/Cyclin D1 (P24385 whole entry partner): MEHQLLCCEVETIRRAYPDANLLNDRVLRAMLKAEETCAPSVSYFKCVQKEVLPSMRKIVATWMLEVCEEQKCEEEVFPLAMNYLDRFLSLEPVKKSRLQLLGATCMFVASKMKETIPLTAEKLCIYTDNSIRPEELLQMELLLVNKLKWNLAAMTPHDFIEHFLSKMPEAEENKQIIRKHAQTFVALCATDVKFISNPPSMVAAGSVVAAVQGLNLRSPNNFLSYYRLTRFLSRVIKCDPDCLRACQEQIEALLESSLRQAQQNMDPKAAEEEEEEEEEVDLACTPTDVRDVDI
Sequence of CDK9/Cyclin T1 (P50750 whole entry): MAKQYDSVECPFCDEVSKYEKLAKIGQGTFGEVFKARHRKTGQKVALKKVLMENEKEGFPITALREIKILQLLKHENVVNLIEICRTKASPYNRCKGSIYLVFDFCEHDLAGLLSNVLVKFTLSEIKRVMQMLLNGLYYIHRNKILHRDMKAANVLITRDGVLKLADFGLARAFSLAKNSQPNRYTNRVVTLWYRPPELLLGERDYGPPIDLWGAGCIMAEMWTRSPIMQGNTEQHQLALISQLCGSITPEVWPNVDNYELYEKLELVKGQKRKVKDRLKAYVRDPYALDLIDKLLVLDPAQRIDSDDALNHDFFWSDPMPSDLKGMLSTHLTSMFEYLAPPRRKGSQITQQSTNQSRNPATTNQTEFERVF
Sequence of CDK9/Cyclin T1 (O60563 whole entry partner): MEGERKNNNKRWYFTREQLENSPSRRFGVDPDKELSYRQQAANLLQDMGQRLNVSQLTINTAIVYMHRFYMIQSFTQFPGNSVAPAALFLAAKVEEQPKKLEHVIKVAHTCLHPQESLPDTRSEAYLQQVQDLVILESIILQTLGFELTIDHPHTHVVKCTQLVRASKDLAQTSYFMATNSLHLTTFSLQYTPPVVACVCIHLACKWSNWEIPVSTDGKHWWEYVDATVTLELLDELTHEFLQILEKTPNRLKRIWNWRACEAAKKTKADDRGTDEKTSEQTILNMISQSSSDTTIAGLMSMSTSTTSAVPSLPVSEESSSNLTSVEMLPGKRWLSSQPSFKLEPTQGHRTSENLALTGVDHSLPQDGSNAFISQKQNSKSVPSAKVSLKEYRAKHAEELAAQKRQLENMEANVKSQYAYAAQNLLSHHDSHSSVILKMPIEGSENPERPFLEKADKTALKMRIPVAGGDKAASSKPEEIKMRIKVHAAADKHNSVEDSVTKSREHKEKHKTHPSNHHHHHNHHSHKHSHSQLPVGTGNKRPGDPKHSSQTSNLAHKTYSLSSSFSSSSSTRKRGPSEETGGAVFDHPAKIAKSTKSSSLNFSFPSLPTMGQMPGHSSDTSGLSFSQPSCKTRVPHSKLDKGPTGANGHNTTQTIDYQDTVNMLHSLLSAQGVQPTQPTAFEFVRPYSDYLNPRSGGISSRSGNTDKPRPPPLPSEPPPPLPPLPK
Sequence of CDK5-p25 (Q00535 whole entry): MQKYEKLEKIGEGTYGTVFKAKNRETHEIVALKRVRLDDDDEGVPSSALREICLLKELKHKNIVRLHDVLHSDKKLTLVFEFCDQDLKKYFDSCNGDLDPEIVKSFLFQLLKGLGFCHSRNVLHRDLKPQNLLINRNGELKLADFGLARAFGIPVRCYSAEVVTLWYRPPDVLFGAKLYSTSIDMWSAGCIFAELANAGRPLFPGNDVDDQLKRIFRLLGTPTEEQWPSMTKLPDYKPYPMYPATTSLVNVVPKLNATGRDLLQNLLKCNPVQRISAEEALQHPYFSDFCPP
Sequence of CDK5-p25 (Q15078 99-307 partner): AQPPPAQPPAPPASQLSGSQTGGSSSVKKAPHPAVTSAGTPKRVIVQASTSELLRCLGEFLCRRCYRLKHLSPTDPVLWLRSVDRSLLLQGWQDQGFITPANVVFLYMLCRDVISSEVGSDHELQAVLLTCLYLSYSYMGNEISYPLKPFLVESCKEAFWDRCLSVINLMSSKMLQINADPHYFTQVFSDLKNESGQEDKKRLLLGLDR

Take `NS(=O)(=O)c1ccc(Nc2ncc3cc4n(c3n2)C2(CCCCC2)C(=O)NC4O)cc1` (stereo not shown) [Compound 1, 4-((6′-hydroxy-8′-oxo-7′,8′-dihydro-6′H-spiro[cyclohexane-1,9′-pyrazino[1′,2′:1,5]pyrrolo[2,3-d]pyrimidin]-2'-yl)amino)benzenesulfonamide]: the IC50 against CDK2/Cyclin A turned out to be 0.16 nM; against CDK2/Cyclin E, 0.34 nM; against CDK4/Cyclin D1 it was 3.1 nM; on CDK6/Cyclin D3 it was 7.5 nM; against CDK9/Cyclin T1 it was 1.4 nM; on CDK1/Cyclin B1 it was 2.2 nM. In addition, the IC50 against CDK3-CYCLIN-E is 0.94 nM; against CDK5-p25, 0.8 nM; against CDK7, 560 nM.
As for `NS(=O)(=O)c1ccc(Nc2ncc3cc4n(c3n2)C2(CCCCC2)CC(=O)N4)cc1` [Compound 2, 4-((7′-oxo-7′,8′-dihydro-6′H-spiro[cyclohexane-1,9′-pyrrolo[1,5-a:2,3-d′]dipyrimidin]-2′-yl)amino)benzenesulfonamide], the IC50 came to 0.4 nM against CDK2/Cyclin A; 0.5 nM at CDK2/Cyclin E; 41 nM on CDK4/Cyclin D1; 98 nM on CDK6/Cyclin D3; 4.5 nM against CDK9/Cyclin T1; 3.7 nM against CDK1/Cyclin B1. The IC50 on CDK3-CYCLIN-E was determined as 2.8 nM; against CDK5-p25, 1.3 nM; on CDK7 it was 200 nM.
For `CN1CCN(S(=O)(=O)c2ccc(Nc3ncc4cc5n(c4n3)C3(CCCCC3)CC(=O)N5)cc2)CC1` [Compound 51, 2′-((4-((4-methylpiperazin-1-yl)sulfonyl)phenyl)amino)-6′H-spiro[cyclohexane-1,9′-pyrrolo[1,5-a:2,3-d′]dipyrimidin]-7′(8′H)-one], the IC50 against CDK2/Cyclin A was 4 nM; on CDK2/Cyclin E it was 5 nM; on CDK4/Cyclin D1, 41 nM; at CDK6/Cyclin D3 it was 63 nM; against CDK9/Cyclin T1, 5 nM; on CDK1/Cyclin B1 it was 31 nM. Also, the IC50 at CDK3-CYCLIN-E worked out at 23 nM; at CDK7, 66 nM.
`CN1CCN(C(=O)c2ccc(Nc3ncc4cc5n(c4n3)C3(CCCCC3)C(=O)NN5)cc2)CC1` [Compound 52, 7′-((4-(4-methylpiperazine-1-carbonyl)phenyl)amino)-1′,2′-dihydro-3′H-spiro[cyclohexane-1,4′-pyrimido[5′,4′:4,5]pyrrolo[2,1-c][1,2,4]triazin]-3′-one]: the IC50 was found to be 18 nM at CDK2/Cyclin A; 4.5 nM against CDK2/Cyclin E; 27 nM against CDK4/Cyclin D1; 75 nM on CDK6/Cyclin D3; 318 nM against CDK9/Cyclin T1; 242 nM against CDK1/Cyclin B1. Moreover, the figures for the IC50 on CDK3-CYCLIN-E and against CDK7 were 75 nM and > 1000 nM, respectively.
As to `CN1CCN(C(=O)c2ccc(Nc3ncc4cc5n(c4n3)C3(CCCCC3)C(=O)NC5O)cc2)CC1` (stereo not shown) [Compound 53, 6′-hydroxy-2′-((4-(4-methylpiperazine-1-carbonyl)phenyl)amino)-6′,7′-dihydro-8′H-spiro[cyclohexane-1,9′-pyrazino[1′,2′:1,5]pyrrolo[2,3-d]pyrimidin]-8′-one], the IC50 came out at 2 nM at CDK2/Cyclin A; 4 nM against CDK2/Cyclin E; 2 nM at CDK4/Cyclin D1; 5 nM at CDK6/Cyclin D3; 10 nM against CDK9/Cyclin T1; 27 nM on CDK1/Cyclin B1. For the same molecule, the results for the IC50 on CDK3-CYCLIN-E and at CDK7 were 10 nM and 615 nM, respectively.
On to `CN1CCN(C(=O)c2ccc(Nc3ncc4cc5n(c4n3)C3(CCCCC3)CC(=O)N5)cc2)CC1` [Compound 54, 2′-((4-(4-methylpiperazine-1-carbonyl)phenyl)amino)-6′H-spiro[cyclohexane-1,9′-pyrrolo[1,5-a:2,3-d′]dipyrimidin]-7′(8′H)-one], for which the concentration for half-maximal inhibition (IC50) against CDK2/Cyclin A was 2 nM; on CDK2/Cyclin E, 1 nM; against CDK4/Cyclin D1, 3 nM; against CDK6/Cyclin D3, 7 nM; at CDK9/Cyclin T1 it was 7 nM; at CDK1/Cyclin B1, 12 nM. The IC50 on CDK3-CYCLIN-E is 8 nM; against CDK7, 144 nM.
For the molecule `O=C1NCC2(CCCCC2)n2c1cc1cnc(Nc3ccc(C(=O)N4CCNCC4)cc3)nc12` [Compound 55, 2′-((4-(piperazine-1-carbonyl)phenyl)amino)-7′,8′-dihydro-6′H-spiro[cyclohexane-1,9′-pyrazino[1′,2′:1,5]pyrrolo[2,3-d]pyrimidin]-6′-one], the IC50 against CDK2/Cyclin A amounted to 0.6 nM; against CDK2/Cyclin E, 1 nM; against CDK4/Cyclin D1 it was 0.3 nM; on CDK6/Cyclin D3 it was 0.4 nM; on CDK9/Cyclin T1 it was 1 nM; at CDK1/Cyclin B1, 5 nM. In addition, the IC50 at CDK3-CYCLIN-E stood at 6 nM; at CDK7, 27 nM.
On to `CC1C(=O)Nc2cc3cnc(Nc4ccc(S(=O)(=O)N5CCN(C)CC5)cc4)nc3n2C12CCCCC2` (stereo not shown) [Compound 59, 8′-methyl-2′-((4-((4-methylpiperazin-1-yl)sulfonyl)phenyl)amino)-6′H-spiro[cyclohexane-1,9′-pyrrolo[1,5-a:2,3-d′]dipyrimidin]-7′(8′H)-one], for which the IC50 was determined as 5 nM on CDK2/Cyclin A; 3 nM on CDK2/Cyclin E; 137 nM on CDK4/Cyclin D1; 123 nM against CDK6/Cyclin D3; 5 nM against CDK9/Cyclin T1; 42 nM against CDK1/Cyclin B1. The IC50 was 57 nM on CDK3-CYCLIN-E and 16 nM against CDK7.
Regarding `O=C(c1ccc(Nc2ncc3cc4n(c3n2)C2(CCCCC2)C(=O)NN4)cc1)N1CCNCC1` [Compound 61, 7′-((4-(piperazine-1-carbonyl)phenyl)amino)-1′,2′-dihydro-3′H-spiro[cyclohexane-1,4′-pyrimido[5′,4′:4,5]pyrrolo[2,1-c][1,2,4]triazin]-3′-one], the concentration for half-maximal inhibition (IC50) against CDK2/Cyclin A was 17 nM; against CDK2/Cyclin E it was 4 nM; against CDK4/Cyclin D1, 17 nM; on CDK6/Cyclin D3 it was 40 nM; against CDK9/Cyclin T1 it was 190 nM; against CDK1/Cyclin B1 it was 133 nM. Besides, the figures for the IC50 against CDK3-CYCLIN-E and against CDK7 were 58 nM and > 1000 nM, respectively.
For `CN(C)C(=O)c1ccc(Nc2ncc3cc4n(c3n2)C2(CCCCC2)C(=O)NN4)cc1` [Compound 62, N,N-dimethyl-4-((3′-oxo-2′,3′-dihydro-1′H-spiro[cyclohexane-1,4′-pyrimido[5′,4′:4,5]pyrrolo[2,1-c][1,2,4]triazin]-7′-yl)amino)benzamide], the IC50 against CDK2/Cyclin A turned out to be 61 nM; at CDK2/Cyclin E, 14 nM; at CDK4/Cyclin D1 it was 82 nM; against CDK6/Cyclin D3 it was 216 nM; at CDK9/Cyclin T1 it was 398 nM; against CDK1/Cyclin B1 it was 727 nM. For the same molecule, the IC50 was 187 nM against CDK3-CYCLIN-E and > 1000 nM against CDK7.
As for `NC(=O)c1ccc(Nc2ncc3cc4n(c3n2)C2(CCCCC2)C(=O)NN4)cc1` [Compound 63, 4-((3′-oxo-2′,3′-dihydro-1′H-spiro[cyclohexane-1,4′-pyrimido[5′,4′:4,5]pyrrolo[2,1-c][1,2,4]triazin]-7′-yl)amino)benzamide], the IC50 against CDK2/Cyclin A amounted to 81 nM; at CDK2/Cyclin E, 33 nM; against CDK4/Cyclin D1 it was 253 nM; against CDK6/Cyclin D3 it was 578 nM; at CDK9/Cyclin T1 it was 118 nM; at CDK1/Cyclin B1, 574 nM. In addition, the IC50 on CDK3-CYCLIN-E amounted to 96 nM; on CDK7, 579 nM.
Take `CNC(=O)c1ccc(Nc2ncc3cc4n(c3n2)C2(CCCCC2)C(=O)NN4)cc1` [Compound 64, N-methyl-4-((3′-oxo-2′,3′-dihydro-1′H-spiro[cyclohexane-1,4′-pyrimido[5′,4′:4,5]pyrrolo[2,1-c][1,2,4]triazin]-7′-yl)amino)benzamide]: the half-inhibitory concentration (IC50) on CDK2/Cyclin A was 85 nM; on CDK2/Cyclin E, 23 nM; at CDK4/Cyclin D1, 132 nM; at CDK6/Cyclin D3, 417 nM; at CDK9/Cyclin T1, 85 nM; on CDK1/Cyclin B1, 505 nM. The values for the IC50 against CDK3-CYCLIN-E and on CDK7 were 105 nM and > 1000 nM, respectively.
Consider `O=C(c1ccc(Nc2ncc3cc4n(c3n2)C2(CCCCC2)C(=O)NN4)cc1)N1CCOCC1` [Compound 74, 7′-((4-(morpholine-4-carbonyl)phenyl)amino)-1′,2′-dihydro-3′H-spiro[cyclohexane-1,4′-pyrimido[5′,4′:4,5]pyrrolo[2,1-c][1,2,4]triazin]-3′-one], for which the concentration for half-maximal inhibition (IC50) on CDK2/Cyclin A was found to be 29 nM; against CDK2/Cyclin E it was 8 nM; at CDK4/Cyclin D1 it was 60 nM; against CDK6/Cyclin D3, 137 nM; at CDK9/Cyclin T1 it was 653 nM; against CDK1/Cyclin B1 it was 258 nM. Also, the figures for the half-maximal inhibitory concentration (IC50) at CDK3-CYCLIN-E and against CDK7 were 106 nM and > 1000 nM, respectively.
